28 compounds from patent US10471046B2, “Method for treating, preventing, or reducing the risk of skin infection” (Melinta Subsidiary Corp., priority 2014, dated 2019) can be followed below.

Each structure is given as a SMILES string. Values after ≈ are worked out from the molar mass of the structure shown.

For the experiment, the system named is S. aureus. In words: Minimum inhibitory concentrations (MICs) for S. aureus of exemplary compounds (Table 2). The experiment is classed as cell-based. To be noted: Staphylococcus aureus, minimum inhibitory concentrations for S. aureus; read-out: MICs. In short, it runs like this:
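MICs (μg/mL) against S. aureus come from microtiter-tray dilution susceptibility testing per NCCLS M7-A5, comparing growth with and without compound.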
Turning to `CC(=O)NC[C@H]1CN(c2ccc(-c3ccc(CNC(=O)[C@@H]4C[C@@H](O)CN4C(=O)OC(C)(C)C)cc3)c(F)c2)C(=O)O1` [Compound 4311, 2-({4′-[5-(S)-(Acetylamino-methyl)-2-oxo-oxazolidin-3-yl]-2′-fluoro-biphenyl-4-ylmethyl}-carbamoyl)-4-(R)-hydroxy-pyrrolidine-1-(S)-carboxylic acid tert-butyl ester], the MIC is 16 µg/mL (≈ 28 µM).

Consider `CC(=O)NC[C@H]1CN(c2ccc(-c3ccc(CNCC(=O)N4CCNCC4)cc3)c(F)c2)C(=O)O1` [Compound 4314, N-(3-{2-Fluoro-4′-[(2-oxo-2-piperazin-1-yl-ethylamino)-methyl]-biphenyl-4-yl}-2-oxo-oxazolidin-5-(S)-ylmethyl)-acetamide], for which the MIC stood at 4 µg/mL (≈ 8.27 µM). `CC(=O)NC[C@H]1CN(c2ccc(-c3ccc(CNCC(=O)N4CCN(C(=O)OC(C)(C)C)CC4)cc3)c(F)c2)C(=O)O1` [Compound 4315, 4-[2-({4′-[5-(S)-(Acetylamino-methyl)-2-oxo-oxazolidin-3-yl]-2′-fluoro-biphenyl-4-ylmethyl}-amino)-acetyl]-piperazine-1-carboxylic acid tert-butyl ester]: the MIC worked out at 4 µg/mL (≈ 6.85 µM). With `CC(=O)NC[C@H]1CN(c2ccc(-c3ccc(CNCC(=O)N4CCOCC4)cc3)c(F)c2)C(=O)O1` [Compound 4316, N-(3-{2-Fluoro-4′-[(2-morpholin-4-yl-2-oxo-ethylamino)-methyl]-biphenyl-4-yl}-2-oxo-oxazolidin-5-(S)-ylmethyl)-acetamide] the figure was 4 µg/mL (≈ 8.26 µM); with `CC(=O)NC[C@H]1CN(c2ccc(-c3ccc(CNCC4CCN(C(=O)OC(C)(C)C)C4)cc3)c(F)c2)C(=O)O1` (stereo partly drawn) [Compound 4317, 3-[({4′-[5-(S)-(Acetylamino-methyl)-2-oxo-oxazolidin-3-yl]-2′-fluoro-biphenyl-4-ylmethyl}-amino)-methyl]-pyrrolidine-1-carboxylic acid tert-butyl ester], 16 µg/mL (≈ 29.6 µM).

With `CC(=O)NC[C@H]1CN(c2ccc(-c3ccc(CNCCN4CCOCC4)cc3)c(F)c2)C(=O)O1` [Compound 4318, N-(3-{2-Fluoro-4′-[(2-morpholin-4-yl-ethylamino)-methyl]-biphenyl-4-yl}-2-oxo-oxazolidin-5-(S)-ylmethyl)-acetamide], the MIC was found to be 16 µg/mL (≈ 34 µM).

Regarding `CC(=O)NC[C@H]1CN(c2ccc(-c3ccc(CNC(=O)C4CC4)cc3)c(F)c2)C(=O)O1` [Compound 4319, Cyclopropanecarboxylic acid {4′-[5-(S)-(acetylamino-methyl)-2-oxo-oxazolidin-3-yl]-2′-fluoro-biphenyl-4-ylmethyl}-amide], the MIC stood at 16 µg/mL (≈ 37.6 µM). With `CC(=O)NC[C@H]1CN(c2ccc(-c3ccc(CNC(=O)C4(N)CC4)cc3)c(F)c2)C(=O)O1` [Compound 4321, 1-Amino-cyclopropanecarboxylic acid {4′-[5-(S)-(acetylamino-methyl)-2-oxo-oxazolidin-3-yl]-2′-fluoro-biphenyl-4-ylmethyl}-amide] the figure was 2 µg/mL (≈ 4.54 µM); with `CC(=O)NC[C@H]1CN(c2ccc(-c3ccc(CNCCSc4cnn[nH]4)cc3)c(F)c2)C(=O)O1` [Compound 5001, N-[3-(2-Fluoro-4′-{[2-(3H-[1,2,3]triazol-4-ylsulfanyl)-ethylamino]-methyl}-biphenyl-4-yl)-2-oxo-oxazolidin-5-(S)-ylmethyl]-acetamide], 1 µg/mL (≈ 2.06 µM); with `CC(=O)NC[C@H]1CN(c2ccc(-c3ccc(CNCCCSc4cnn[nH]4)cc3)c(F)c2)C(=O)O1` [Compound 5002, N-[3-(2-Fluoro-4′-{[3-(3H-[1,2,3]triazol-4-ylsulfanyl)-propylamino]-methyl}-biphenyl-4-yl)-2-oxo-oxazolidin-5-(S)-ylmethyl]-acetamide], 0.25 µg/mL (≈ 0.501 µM). With `CC(=O)NC[C@H]1CN(c2ccc(-c3ccc(CNCCSc4nncs4)cc3)c(F)c2)C(=O)O1` [Compound 5003, N-[3-(2-Fluoro-4′-{[2-([1,3,4]thiadiazol-2-ylsulfanyl)-ethylamino]-methyl}-biphenyl-4-yl)-2-oxo-oxazolidin-5-(S)-ylmethyl]-acetamide] the figure was 1 µg/mL (≈ 1.99 µM); with `CC(=O)NC[C@H]1CN(c2ccc(-c3ccc(CNCCSc4ccccn4)cc3)c(F)c2)C(=O)O1` [Compound 5004, N-[3-(2-Fluoro-4′-{[2-(pyridin-2-ylsulfanyl)-ethylamino]-methyl}-biphenyl-4-yl)-2-oxo-oxazolidin-5-(S)-ylmethyl]-acetamide], 1 µg/mL (≈ 2.02 µM).

As for `CC(=O)NC[C@H]1CN(c2ccc(-c3ccc(CNCCSc4nnc[nH]4)cc3)c(F)c2)C(=O)O1` [Compound 5005, N-[3-(2-Fluoro-4′-{[2-(4H-[1,2,4]triazol-3-ylsulfanyl)-ethylamino]-methyl}-biphenyl-4-yl)-2-oxo-oxazolidin-5-(S)-ylmethyl]-acetamide], the MIC came out at 0.5 µg/mL (≈ 1.03 µM). With `CC(=O)NC[C@H]1CN(c2ccc(-c3ccc(CNCCSc4nccs4)cc3)c(F)c2)C(=O)O1` [Compound 5006, N-[3-(2-Fluoro-4′-{[2-(thiazol-2-ylsulfanyl)-ethylamino]-methyl}-biphenyl-4-yl)-2-oxo-oxazolidin-5-(S)-ylmethyl]-acetamide] the figure was 1 µg/mL (≈ 2 µM).

Turning to `O=C1O[C@@H](Cn2ccnn2)CN1c1ccc(-c2ccc(CNCCSc3cnn[nH]3)cc2)c(F)c1` [Compound 5007, 3-(2-Fluoro-4′-{[2-(3H-[1,2,3]triazol-4-ylsulfanyl)-ethylamino]-methyl}-biphenyl-4-yl)-5-(R)-[1,2,3]triazol-1-ylmethyl-oxazolidin-2-one], the MIC is 0.25 µg/mL (≈ 0.506 µM). As to `CC(=O)NC[C@H]1CN(c2ccc(-c3ccc(CNCCSc4ncc[nH]4)cc3)c(F)c2)C(=O)O1` [Compound 5008, N-[3-(2-Fluoro-4′-{[2-(1H-imidazol-2-ylsulfanyl)-ethylamino]-methyl}-biphenyl-4-yl)-2-oxo-oxazolidin-5-(S)-ylmethyl]-acetamide], the MIC turned out to be 2 µg/mL (≈ 4.14 µM).

On to `CC(=O)NC[C@H]1CN(c2ccc(-c3ccc(CNCCSc4ncccn4)cc3)c(F)c2)C(=O)O1` [Compound 5009, N-[3-(2-Fluoro-4′-{[2-(pyrimidin-2-ylsulfanyl)-ethylamino]-methyl}-biphenyl-4-yl)-2-oxo-oxazolidin-5-(S)-ylmethyl]-acetamide], for which the MIC was found to be 1 µg/mL (≈ 2.02 µM). Take `CCOC(=O)c1c[nH]c(SCCNCc2ccc(-c3ccc(N4C[C@H](CNC(C)=O)OC4=O)cc3F)cc2)n1` [Compound 5010, 2-[2-({4′-[5-(S)-(Acetylamino-methyl)-2-oxo-oxazolidin-3-yl]-2′-fluoro-biphenyl-4-ylmethyl}-amino)-ethylsulfanyl]-1H-imidazole-4-carboxylic acid ethyl ester]: the MIC stood at 4 µg/mL (≈ 7.2 µM). With `CC(=O)NC[C@H]1CN(c2ccc(-c3ccc(CNC[C@H](O)CSc4nnc[nH]4)cc3)c(F)c2)C(=O)O1` [Compound 5011] the figure was 4 µg/mL (≈ 7.77 µM). With `CC(=O)NC[C@H]1CN(c2ccc(-c3ccc(CNC(=O)Nc4ccncc4)cc3)c(F)c2)C(=O)O1` [Compound 5012, N-(3-{2-Fluoro-4′-[(3-pyridin-4-yl-ureido)-methyl]-biphenyl-4-yl}-2-oxo-oxazolidin-5-(S)-ylmethyl)-acetamide] the figure was 2 µg/mL (≈ 4.19 µM); with `CC(=O)NC[C@H]1CN(c2ccc(-c3ccc(CNC(=O)Nc4cccc(F)c4)cc3)c(F)c2)C(=O)O1` [Compound 5013, N-(3-{2-Fluoro-4′-[3-(3-fluoro-phenyl)-ureidomethyl]-biphenyl-4-yl}-2-oxo-oxazolidin-5-(S)-ylmethyl)-acetamide], 32 µg/mL (≈ 64.7 µM); with `CC(=O)NC[C@H]1CN(c2ccc(-c3ccc(CNC(=O)COc4ccc(Cl)cc4Cl)cc3)c(F)c2)C(=O)O1` [Compound 5014, N-{4′-[5-(S)-(Acetylamino-methyl)-2-oxo-oxazolidin-3-yl]-2′-fluoro-biphenyl-4-ylmethyl}-2-(2,4-dichloro-phenoxy)-acetamide], 16 µg/mL (≈ 28.6 µM). With `CC(=O)NC[C@H]1CN(c2ccc(-c3ccc(CNCCCNc4ncc(C(F)(F)F)cc4Cl)cc3)c(F)c2)C(=O)O1` [Compound 5015, N-[3-(4′-{[3-(3-Chloro-5-trifluoromethyl-pyridin-2-ylamino)-propylamino]-methyl}-2-fluoro-biphenyl-4-yl)-2-oxo-oxazolidin-5-(S)-ylmethyl]-acetamide] the figure was 4 µg/mL (≈ 6.73 µM); with `CC(=O)NC[C@H]1CN(c2ccc(-c3ccc(NC(=O)NCCCn4ccnc4)cc3)c(F)c2)C(=O)O1` [Compound 6001, N-(3-{2-Fluoro-4′-[3-(3-imidazol-1-yl-propyl)-ureido]-biphenyl-4-yl}-2-oxo-oxazolidin-5-(S)-ylmethyl)-acetamide], 16 µg/mL (≈ 32.4 µM); with `CC(=O)NC[C@H]1CN(c2ccc(-c3ccc(NC(=O)NCCc4ccccn4)cc3)c(F)c2)C(=O)O1` [Compound 6003, N-(3-{2-Fluoro-4′-[3-(2-pyridin-2-yl-ethyl)-ureido]-biphenyl-4-yl}-2-oxo-oxazolidin-5-(S)-ylmethyl)-acetamide], 2 µg/mL (≈ 4.07 µM). Consider `CC(=O)NC[C@H]1CN(c2ccc(-c3ccc(NC(=O)NCc4ccncc4)cc3)c(F)c2)C(=O)O1` [Compound 6004, N-{3-[2-Fluoro-4′-(3-pyridin-4-ylmethyl-ureido)-biphenyl-4-yl]-2-oxo-oxazolidin-5-(S)-ylmethyl}-acetamide], for which the MIC was found to be 1 µg/mL (≈ 2.09 µM). With `CC(=O)NC[C@H]1CN(c2ccc(-c3ccc(NC(=O)NCc4ccccn4)cc3)c(F)c2)C(=O)O1` [Compound 6005, N-{3-[2-Fluoro-4′-(3-pyridin-2-ylmethyl-ureido)-biphenyl-4-yl]-2-oxo-oxazolidin-5-(S)-ylmethyl}-acetamide] the figure was 1 µg/mL (≈ 2.09 µM); with `CC(=O)NC[C@H]1CN(c2ccc(-c3ccc(NC(=O)Nc4ccncc4)cc3)c(F)c2)C(=O)O1` [Compound 6006, N-{3-[2-Fluoro-4′-(3-pyridin-4-yl-ureido)-biphenyl-4-yl]-2-oxo-oxazolidin-5-(S)-ylmethyl}-acetamide], 128 µg/mL (≈ 276 µM).
